Laboratory results reported in US8722849B2, “Polypeptides” (Novo Nordisk A/S, priority 2011, dated 2014).
Starred links: 1 amine or outer side, 2 acyl side, 3 side chain; linkers in the order of their positions; H or OH if unused. Positions of bridges follow the written chain, without caps; N, C: chain ends. Residues, ends and D or L forms follow the SMILES beside them. *: point of attachment. C20 diacid = O=C(O)CCCCCCCCCCCCCCCCCCC(=O)*; C18 diacid = O=C(O)CCCCCCCCCCCCCCCCC(=O)*; γGlu = O=C(O)[C@H](CCC(=O)[*:2])N[*:1]

Experiment: Assay (III) ThT fibrillation assay for physical stability
Type: physicochemical
In short: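 Freshly prepared formulations, pH-adjusted, with 1 μM ThT; four or eight replicates incubated at 37 °C under 960 rpm orbital shaking. Fluorescence (ex 444/em 485 nm) read every 20 min; […]. Peptide concentration measured by RP-HPLC before and after the run.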

SMILES | ThT pH 4.0 lag time (ThT fibrillation assay) [h] | ThT pH 4.0 lag time (h) (ThT fibrillation assay) | ThT pH 4.0 lag time (Table 8) [h] | ThT pH 4.0 lag time (Table 9) [h]
CC[C@H](C)[C@H](NC(=O)[C@@H]1CCCN1C(=O)CNC(=O)[C@H](Cc1ccccc1)NC(=O)[C@H](CC(N)=O)NC(=O)[C@H](CC(N)=O)NC(=O)[C@H](CO)NC(=O)[C@H](CO)NC(=O)[C@H](Cc1c[nH]cn1)NC(=O)[C@H](CCCNC(=N)N)NC(=O)[C@H](CC(C)C)NC(=O)[C@H](Cc1ccccc1)NC(=O)[C@H](CCC(=O)O)NC(=O)[C@H](C)NC(=O)[C@H](CC(C)C)NC(=O)[C@H](CCCNC(=N)N)NC(=O)[C@H](CCC(N)=O)NC(=O)[C@@H](NC(=O)[C@H](C)NC(=O)[C@@H]1CSSC[C@H](NC(=O)[C@H](CCCCN)NC(=O)[C@H](Cc2c[nH]cn2)NC(=O)CC[C@H](NC(=O)CCCCCCCCCCCCCCCCC(=O)O)C(=O)O)C(=O)N[C@@H](CC(N)=O)C(=O)N[C@@H]([C@@H](C)O)C(=O)N[C@@H](C)C(=O)N[C@@H]([C@@H](C)O)C(=O)N1)[C@@H](C)O)C(=O)N[C@@H](CC(C)C)C(=O)N1CCC[C@H]1C(=O)N1CCC[C@H]1C(=O)N[C@H](C(=O)N[C@@H](CC(N)=O)C(=O)N[C@H](C(=O)NCC(=O)N[C@@H](CO)C(=O)N[C@@H](Cc1c[nH]cn1)C(=O)N[C@H](C(=O)N[C@@H](Cc1ccc(O)cc1)C(N)=O)[C@@H](C)O)C(C)C)[C@@H](C)O [Example 71, N-alpha-[(S)-4-Carboxy-4-(17-carboxyheptadecanoylamino)butyryl]-His-[Glu14,Arg17,His35]-pramlintide] ({C18 diacid-γGlu}-HKCNTATCATQRLAEFLRHSSNNFGPILPPTNVGSHTY-NH2; disulfide 3-8 (inferred); C-terminus assumed) | >45 | >45 | – | –
CC[C@H](C)[C@H](NC(=O)[C@@H]1CCCN1C(=O)CNC(=O)[C@H](Cc1ccccc1)NC(=O)[C@H](CC(N)=O)NC(=O)[C@H](CC(N)=O)NC(=O)[C@H](CO)NC(=O)[C@H](CO)NC(=O)[C@H](Cc1c[nH]cn1)NC(=O)[C@H](CCCNC(=N)N)NC(=O)[C@H](CC(C)C)NC(=O)[C@H](Cc1ccccc1)NC(=O)[C@H](CCC(=O)O)NC(=O)[C@H](C)NC(=O)[C@H](CC(C)C)NC(=O)[C@H](CCCNC(=N)N)NC(=O)[C@H](CCC(N)=O)NC(=O)[C@@H](NC(=O)[C@H](C)NC(=O)[C@@H]1CSSC[C@H](NC(=O)[C@H](CCCCN)NC(=O)CC[C@H](NC(=O)CCCCCCCCCCCCCCCCCCC(=O)O)C(=O)O)C(=O)N[C@@H](CC(N)=O)C(=O)N[C@@H]([C@@H](C)O)C(=O)N[C@@H](C)C(=O)N[C@@H]([C@@H](C)O)C(=O)N1)[C@@H](C)O)C(=O)N[C@@H](CC(C)C)C(=O)N1CCC[C@H]1C(=O)N1CCC[C@H]1C(=O)N[C@H](C(=O)N[C@@H](CC(N)=O)C(=O)N[C@H](C(=O)NCC(=O)N[C@@H](CO)C(=O)N[C@@H](CC(N)=O)C(=O)N[C@H](C(=O)N[C@@H](Cc1ccc(O)cc1)C(N)=O)[C@@H](C)O)C(C)C)[C@@H](C)O [Example 50, N-alpha-[(S)-4-Carboxy-4-(19-carboxynonadecanoylamino)butyryl]-[Glu14,Arg17]-pramlintide] ({C20 diacid-γGlu}-KCNTATCATQRLAEFLRHSSNNFGPILPPTNVGSNTY-NH2; disulfide 2-7 (inferred)) | >45 | >45 | – | –
CC[C@H](C)[C@H](NC(=O)[C@@H]1CCCN1C(=O)CNC(=O)[C@H](Cc1ccccc1)NC(=O)[C@H](CC(N)=O)NC(=O)[C@H](CCC(N)=O)NC(=O)[C@H](CO)NC(=O)[C@H](CO)NC(=O)[C@H](Cc1c[nH]cn1)NC(=O)[C@H](Cc1c[nH]cn1)NC(=O)[C@H](CC(C)C)NC(=O)[C@H](Cc1ccccc1)NC(=O)[C@H](CCC(=O)O)NC(=O)[C@H](C)NC(=O)[C@H](CC(C)C)NC(=O)[C@H](CCCNC(=N)N)NC(=O)[C@H](CCC(N)=O)NC(=O)[C@@H](NC(=O)[C@H](C)NC(=O)[C@@H]1CSSC[C@H](NC(=O)[C@H](CCCCN)NC(=O)CC[C@H](NC(=O)CCCCCCCCCCCCCCCCCCC(=O)O)C(=O)O)C(=O)N[C@@H](CC(N)=O)C(=O)N[C@@H]([C@@H](C)O)C(=O)N[C@@H](C)C(=O)N[C@@H]([C@@H](C)O)C(=O)N1)[C@@H](C)O)C(=O)N[C@@H](CC(C)C)C(=O)N1CCC[C@H]1C(=O)N1CCC[C@H]1C(=O)N[C@H](C(=O)N[C@@H](CC(N)=O)C(=O)N[C@H](C(=O)NCC(=O)N[C@@H](CO)C(=O)N[C@@H](Cc1c[nH]cn1)C(=O)N[C@H](C(=O)N[C@@H](Cc1ccc(O)cc1)C(N)=O)[C@@H](C)O)C(C)C)[C@@H](C)O [Example 117, N-alpha-[(S)-4-Carboxy-4-(19-carboxynonadecanoylamino)butyryl]-[Glu14,His17,Gln21,His35)-pramlintide] ({C20 diacid-γGlu}-KCNTATCATQRLAEFLHHSSQNFGPILPPTNVGSHTY-NH2; disulfide 2-7 (inferred); C-terminus assumed) | >45 | >45 | >45 | >45
CC[C@H](C)[C@H](NC(=O)[C@H](CCC(=O)O)NC(=O)CNC(=O)[C@H](Cc1ccccc1)NC(=O)[C@H](CC(N)=O)NC(=O)[C@H](CC(N)=O)NC(=O)[C@H](CO)NC(=O)[C@H](CO)NC(=O)[C@H](CCCNC(=N)N)NC(=O)[C@H](Cc1c[nH]cn1)NC(=O)[C@H](CC(C)C)NC(=O)[C@H](Cc1ccccc1)NC(=O)[C@H](CCC(=O)O)NC(=O)[C@H](C)NC(=O)[C@H](CC(C)C)NC(=O)[C@H](CCCNC(=N)N)NC(=O)[C@H](CCC(N)=O)NC(=O)[C@@H](NC(=O)[C@H](C)NC(=O)[C@@H]1CSSC[C@H](NC(=O)[C@H](Cc2c[nH]cn2)NC(=O)CC[C@H](NC(=O)CCCCCCCCCCCCCCCCCCC(=O)O)C(=O)O)C(=O)N[C@@H](CC(N)=O)C(=O)N[C@@H]([C@@H](C)O)C(=O)N[C@@H](C)C(=O)N[C@@H]([C@@H](C)O)C(=O)N1)[C@@H](C)O)C(=O)N[C@@H](CC(C)C)C(=O)N[C@@H](CO)C(=O)N[C@@H](CCCNC(=N)N)C(=O)N[C@H](C(=O)N[C@@H](CC(N)=O)C(=O)N[C@H](C(=O)NCC(=O)N[C@@H](CO)C(=O)N[C@@H](CC(N)=O)C(=O)N[C@H](C(=O)N[C@@H](Cc1ccc(O)cc1)C(N)=O)[C@@H](C)O)C(C)C)[C@@H](C)O [Example 7, N-alpha-[(S)-4-Carboxy-4-(19-carboxynonadecanoylamino)butyryl]-[His1,Glu14,His17,Arg18,Glu25,Ser28,Arg29]-pramlintide] ({C20 diacid-γGlu}-HCNTATCATQRLAEFLHRSSNNFGEILSRTNVGSNTY-NH2; disulfide 2-7 (inferred); C-terminus assumed) | – | 0 | – | –
